Experimental data: ChEMBL document CHEMBL4138175, “Newly designed organotin(IV) carboxylates with peptide linkage: Synthesis, structural elucidation, physicochemical characterizations and pharmacological investigations” (Eur J Med Chem, 2018)
Calls of active or inactive are those of the source. The calls are words filed in the database; no cut-off is given here.

Legend:
NCI-H157 [1] = experiment: Cytotoxicity against human NCI-H157 cells at 100 uM after 48 hrs by sulforhodamine B assay; format: functional
NCI-H157 [2] = experiment: Cytotoxicity against human NCI-H157 cells at 10 uM after 48 hrs by sulforhodamine B assay; format: functional
NCI-H157 [3] = experiment: Cytotoxicity against human NCI-H157 cells at 1 uM after 48 hrs by sulforhodamine B assay; format: functional
NCI-H157 [4] = experiment: Cytotoxicity against human NCI-H157 cells at 0.1 uM after 48 hrs by sulforhodamine B assay; format: functional
Leishmania major [5] = experiment: Antileishmanial activity against Leishmania major promastigotes at 100 uM after 72 hrs by MTT assay relative to control; format: functional
Leishmania major [6] = experiment: Antileishmanial activity against Leishmania major promastigotes at 10 uM after 72 hrs by MTT assay relative to control; format: functional
Leishmania major [7] = experiment: Antileishmanial activity against Leishmania major promastigotes at 1 uM after 72 hrs by MTT assay relative to control; format: functional
Leishmania major [8] = experiment: Antileishmanial activity against Leishmania major promastigotes at 0.1 uM after 72 hrs by MTT assay relative to control; format: functional
Klebsiella pneumoniae [9] = experiment: Antibacterial activity against Klebsiella pneumoniae assessed as zone of inhibition after 24 to 48 hrs by well diffusion method; format: functional
Streptococcus pyogenes [10] = experiment: Antibacterial activity against Streptococcus pyogenes assessed as zone of inhibition after 24 to 48 hrs by well diffusion method; format: functional
[11] = test system: Staphylococcus epidermidis; experiment: Antibacterial activity against Staphylococcus epidermidis assessed as zone of inhibition after 24 to 48 hrs by well diffusion method; format: functional
Staphylococcus aureus [12] = experiment: Antibacterial activity against Staphylococcus aureus assessed as zone of inhibition after 24 to 48 hrs by well diffusion method; format: functional
Serratia marcescens [13] = experiment: Antibacterial activity against Serratia marcescens assessed as zone of inhibition after 24 to 48 hrs by well diffusion method; format: functional
Pseudomonas aeruginosa [14] = experiment: Antibacterial activity against Pseudomonas aeruginosa assessed as zone of inhibition after 24 to 48 hrs by well diffusion method; format: functional
Escherichia coli [15] = experiment: Antibacterial activity against Escherichia coli assessed as zone of inhibition after 24 to 48 hrs by well diffusion method; format: functional
Klebsiella pneumoniae [16] = experiment: Antibacterial activity against Klebsiella pneumoniae assessed as zone of inhibition by measuring activity index after 24 to 48 hrs by well diffusion method relative to tetracycline; format: functional, organism-based
Klebsiella pneumoniae [17] = experiment: Antibacterial activity against Klebsiella pneumoniae assessed as zone of inhibition by measuring activity index after 24 to 48 hrs by well diffusion method relative to ampicillin; format: functional, organism-based
Klebsiella pneumoniae [18] = experiment: Antibacterial activity against Klebsiella pneumoniae assessed as zone of inhibition by measuring activity index after 24 to 48 hrs by well diffusion method relative to amoxicillin; format: functional, organism-based
Streptococcus pyogenes [19] = experiment: Antibacterial activity against Streptococcus pyogenes assessed as zone of inhibition by measuring activity index after 24 to 48 hrs by well diffusion method relative to tetracycline; format: functional, organism-based
Streptococcus pyogenes [20] = experiment: Antibacterial activity against Streptococcus pyogenes assessed as zone of inhibition by measuring activity index after 24 to 48 hrs by well diffusion method relative to penicillin G; format: functional, organism-based
Streptococcus pyogenes [21] = experiment: Antibacterial activity against Streptococcus pyogenes assessed as zone of inhibition by measuring activity index after 24 to 48 hrs by well diffusion method relative to ampicillin; format: functional, organism-based
Streptococcus pyogenes [22] = experiment: Antibacterial activity against Streptococcus pyogenes assessed as zone of inhibition by measuring activity index after 24 to 48 hrs by well diffusion method relative to amoxicillin; format: functional, organism-based
[23] = test system: Staphylococcus epidermidis; experiment: Antibacterial activity against Staphylococcus epidermidis assessed as zone of inhibition by measuring activity index after 24 to 48 hrs by well diffusion method relative to tetracycline; format: functional, organism-based
[24] = test system: Staphylococcus epidermidis; experiment: Antibacterial activity against Staphylococcus epidermidis assessed as zone of inhibition by measuring activity index after 24 to 48 hrs by well diffusion method relative to amoxicillin; format: functional, organism-based
Serratia marcescens [25] = experiment: Antibacterial activity against Serratia marcescens assessed as zone of inhibition by measuring activity index after 24 to 48 hrs by well diffusion method relative to tetracycline; format: functional, organism-based
Pseudomonas aeruginosa [26] = experiment: Antibacterial activity against Pseudomonas aeruginosa assessed as zone of inhibition by measuring activity index after 24 to 48 hrs by well diffusion method relative to ampicillin; format: functional, organism-based
Escherichia coli [27] = experiment: Antibacterial activity against Escherichia coli assessed as zone of inhibition by measuring activity index after 24 to 48 hrs by well diffusion method relative to tetracycline; format: functional
Escherichia coli [28] = experiment: Antibacterial activity against Escherichia coli assessed as zone of inhibition by measuring activity index after 24 to 48 hrs by well diffusion method relative to penicillin G; format: functional, organism-based
Escherichia coli [29] = experiment: Antibacterial activity against Escherichia coli assessed as zone of inhibition by measuring activity index after 24 to 48 hrs by well diffusion method relative to ampicillin; format: functional, organism-based
Escherichia coli [30] = experiment: Antibacterial activity against Escherichia coli assessed as zone of inhibition by measuring activity index after 24 to 48 hrs by well diffusion method relative to amoxicillin; format: functional, organism-based
NCI-H157 [31] = experiment: Cytotoxicity against human NCI-H157 cells after 48 hrs by sulforhodamine B assay; format: functional, cell-based
Klebsiella pneumoniae [32] = experiment: Antibacterial activity against Klebsiella pneumoniae assessed as zone of inhibition by measuring activity index after 24 to 48 hrs by well diffusion method relative to penicillin G; format: functional, organism-based
[33] = test system: Staphylococcus epidermidis; experiment: Antibacterial activity against Staphylococcus epidermidis assessed as zone of inhibition by measuring activity index after 24 to 48 hrs by well diffusion method relative to penicillin G; format: functional, organism-based
[34] = test system: Staphylococcus epidermidis; experiment: Antibacterial activity against Staphylococcus epidermidis assessed as zone of inhibition by measuring activity index after 24 to 48 hrs by well diffusion method relative to ampicillin; format: functional, organism-based
Staphylococcus aureus [35] = experiment: Antibacterial activity against Staphylococcus aureus assessed as zone of inhibition by measuring activity index after 24 to 48 hrs by well diffusion method relative to tetracycline; format: functional, organism-based
Staphylococcus aureus [36] = experiment: Antibacterial activity against Staphylococcus aureus assessed as zone of inhibition by measuring activity index after 24 to 48 hrs by well diffusion method relative to penicillin G; format: functional, organism-based
Staphylococcus aureus [37] = experiment: Antibacterial activity against Staphylococcus aureus assessed as zone of inhibition by measuring activity index after 24 to 48 hrs by well diffusion method relative to ampicillin; format: functional, organism-based
Staphylococcus aureus [38] = experiment: Antibacterial activity against Staphylococcus aureus assessed as zone of inhibition by measuring activity index after 24 to 48 hrs by well diffusion method relative to amoxicillin; format: functional, organism-based
Pseudomonas aeruginosa [39] = experiment: Antibacterial activity against Pseudomonas aeruginosa assessed as zone of inhibition by measuring activity index after 24 to 48 hrs by well diffusion method relative to tetracycline; format: functional, organism-based
Pseudomonas aeruginosa [40] = experiment: Antibacterial activity against Pseudomonas aeruginosa assessed as zone of inhibition by measuring activity index after 24 to 48 hrs by well diffusion method relative to penicillin G; format: functional, organism-based
Pseudomonas aeruginosa [41] = experiment: Antibacterial activity against Pseudomonas aeruginosa assessed as zone of inhibition by measuring activity index after 24 to 48 hrs by well diffusion method relative to amoxicillin; format: functional, organism-based
Serratia marcescens [42] = experiment: Antibacterial activity against Serratia marcescens assessed as zone of inhibition by measuring activity index after 24 to 48 hrs by well diffusion method relative to penicillin G; format: functional
Serratia marcescens [43] = experiment: Antibacterial activity against Serratia marcescens assessed as zone of inhibition by measuring activity index after 24 to 48 hrs by well diffusion method relative to ampicillin; format: functional
Serratia marcescens [44] = experiment: Antibacterial activity against Serratia marcescens assessed as zone of inhibition by measuring activity index after 24 to 48 hrs by well diffusion method relative to amoxicillin; format: functional
DNA [45] = experiment: Binding affinity to single-stranded DNA (unknown origin) assessed as DNA intercalation by measuring increase in relative viscosity of DNA-compound complex by viscometry; format: nucleic-acid assay
DNA [46] = experiment: Binding affinity to single-stranded DNA (unknown origin) after 10 mins by UV-visible spectrometric method; format: nucleic-acid assay
DNA [47] = experiment: Binding affinity to single-stranded DNA (unknown origin) assessed as red shift up to 72 uM after 10 mins by UV-visible spectrometric method; format: nucleic-acid assay

Substance	Activity (NCI-H157 [1]) [%]	Activity (NCI-H157 [2]) [%]	Activity (NCI-H157 [3]) [%]	Activity (NCI-H157 [4]) [%]	Activity (Leishmania major [5]) [%]	Activity (Leishmania major [6]) [%]	Activity (Leishmania major [7]) [%]	Activity (Leishmania major [8]) [%]	inhibition zone (IZ) (Klebsiella pneumoniae [9])	inhibition zone (IZ) (Streptococcus pyogenes [10])	inhibition zone (IZ) [11]	inhibition zone (IZ) (Staphylococcus aureus [12])	inhibition zone (IZ) (Serratia marcescens [13])	inhibition zone (IZ) (Pseudomonas aeruginosa [14])	inhibition zone (IZ) (Escherichia coli [15])	Activity index (Klebsiella pneumoniae [16])	Activity index (Klebsiella pneumoniae [17])	Activity index (Klebsiella pneumoniae [18])	Activity index [23]	Activity (NCI-H157 [31])	also measured
Dimethylstannanediyl bis 2-(4-methoxy-2-nitrophenylcarbamoyl)benzoate	55.6	53.4	51.2	48.9	62.3	54.7	51.6	48.4	25.2 mm	inactive	13.3 mm	13.7 mm	inactive	inactive	1.77 mm	1.8	4.2	4.2	1.33	Dose-dependent effect	Activity_index (Streptococcus pyogenes [19]): inactive; Activity_index (Streptococcus pyogenes [20]): inactive; Activity_index (Streptococcus pyogenes [21]): inactive; Activity_index (Streptococcus pyogenes [22]): inactive; Activity index [24]: 6.65; Activity_index (Serratia marcescens [25]): inactive; Activity_index (Pseudomonas aeruginosa [26]): inactive; Activity index (Escherichia coli [27]): 0.88; Activity_index (Escherichia coli [28]): inactive; Activity_index (Escherichia coli [29]): inactive; Activity_index (Escherichia coli [30]): inactive
Diphenylstannanediyl bis 2-(4-methoxy-2-nitrophenylcarbamoyl)benzoate	73.9	67.1	59.6	55.5	71.2	65.5	60.4	56.6	inactive	7.33 mm	inactive	inactive	inactive	10 mm	inactive					Dose-dependent effect	Activity_index (Klebsiella pneumoniae [32]): inactive; Activity_index [33]: inactive; Activity_index [34]: inactive; Activity_index (Staphylococcus aureus [35]): inactive; Activity_index (Staphylococcus aureus [36]): inactive; Activity_index (Staphylococcus aureus [37]): inactive; Activity_index (Staphylococcus aureus [38]): inactive; Activity_index (Serratia marcescens [25]): inactive; Activity index (Pseudomonas aeruginosa [39]): 1.67; Activity index (Pseudomonas aeruginosa [40]): 1.67; Activity index (Pseudomonas aeruginosa [41]): 1.67; Activity_index (Escherichia coli [28]): inactive; Activity_index (Escherichia coli [29]): inactive; Activity_index (Escherichia coli [30]): inactive
Tricyclohexylstannyl 2-(4-methoxy-2-nitrophenylcarbamoyl)benzoate	59.3	54	50.6	43.6	67.8	63.5	58.8	55.2	18.5 mm	16.7 mm	12.3 mm	inactive	inactive	18.7 mm	inactive	1.32	3.09	3.09	1.23	Dose-dependent effect	Activity index [24]: 6.17; Activity_index (Staphylococcus aureus [35]): inactive; Activity_index (Staphylococcus aureus [36]): inactive; Activity_index (Staphylococcus aureus [37]): inactive; Activity_index (Staphylococcus aureus [38]): inactive; Activity_index (Serratia marcescens [25]): inactive; Activity index (Pseudomonas aeruginosa [39]): 3.11; Activity index (Pseudomonas aeruginosa [40]): 3.11; Activity index (Pseudomonas aeruginosa [41]): 3.11
Triethylstannyl 2-(4-methoxy-2-nitrophenylcarbamoyl)benzoate	62.4	57.4	43.7	39.8	56.4	53.2	49.4	45.3	27.7 mm	15.7 mm	11 mm	19.3 mm	15.3 mm	inactive	inactive	1.98	4.61	4.61	1.1	Dose-dependent effect	Activity index [24]: 5.5; Activity index (Serratia marcescens [42]): 1.92; Activity index (Serratia marcescens [43]): 1.92; Activity index (Serratia marcescens [44]): 2.55; Activity_index (Pseudomonas aeruginosa [26]): inactive; Activity_index (Escherichia coli [28]): inactive; Activity_index (Escherichia coli [29]): inactive; Activity_index (Escherichia coli [30]): inactive; Activity (DNA [45]): Active; K (DNA [46]): 9.3 ×10³ /M; Activity (DNA [47]): < 3 nm
Trimethylstannyl 2-(4-methoxy-2-nitrophenylcarbamoyl)benzoate	66.4	62.3	58.2	54.4	67.8	66.5	62.9	58.8	20.2 mm	7.33 mm	10.3 mm	4.66 mm	13.3 mm	15.7 mm	16.7 mm	1.44	3.44	3.44	1.03	Dose-dependent effect	Activity index [24]: 5.17; Activity index (Serratia marcescens [42]): 1.67; Activity index (Serratia marcescens [43]): 1.67; Activity index (Serratia marcescens [44]): 2.22; Activity index (Pseudomonas aeruginosa [39]): 2.61; Activity index (Pseudomonas aeruginosa [40]): 2.61; Activity index (Pseudomonas aeruginosa [41]): 2.61; Activity index (Escherichia coli [27]): 8.33; Activity (DNA [45]): Active; K (DNA [46]): 4.2 ×10³ /M; Activity (DNA [47]): < 3 nm
